{"source": "patent US20250388597A1", "about": "“BIFUNCTIONAL PHOTOCROSSLINKING PROBES FOR COVALENT CAPTURE OF PROTEIN-NUCLEIC ACID COMPLEXES IN CELLS” (UNIVERSITY OF SOUTHERN CALIFORNIA, priority 2022, published 2025)", "key": {"Nkx2.5/DNA complex": {"biological_target": "T1, Nkx2.5/DNA complex (Homo sapiens, UniProt P52952)", "T1 construct": "human Nkx2.5 DBD (the homeodomain); made in house", "T1 sequence (P52952 138-197 limits assumed, one chain of several)": "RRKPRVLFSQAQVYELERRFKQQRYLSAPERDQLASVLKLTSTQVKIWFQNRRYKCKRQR", "test": "BFPX crosslinking of Nkx2.5/DNA complexes, SDS PAGE", "assay_type": "biochemical", "settings": "denaturing SDS PAGE; probes with UV", "method": "FIG. 12H depicts BFPX crosslinking of Nkx2.5/DNA complexes. […] The various treatment combinations were list above the gel. The reactions were then analyzed by SDS PAGE under denaturing condition as described in FIG. 12D."}, "p53/DNA complex": {"biological_target": "T2, p53/DNA complex (Homo sapiens, UniProt P04637)", "T2 construct": "the human tumor suppressor p53 DBD; made in house", "T2 sequence (P04637 102-292 limits assumed, one chain of several)": "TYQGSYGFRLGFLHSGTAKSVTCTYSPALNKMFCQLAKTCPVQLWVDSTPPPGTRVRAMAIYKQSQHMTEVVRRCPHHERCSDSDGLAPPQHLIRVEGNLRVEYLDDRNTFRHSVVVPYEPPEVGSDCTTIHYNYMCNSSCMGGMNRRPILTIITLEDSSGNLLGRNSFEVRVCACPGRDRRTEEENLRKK", "test": "BFPX crosslinking of p53/DNA complexes, SDS PAGE", "assay_type": "biochemical", "settings": "denaturing SDS PAGE; probes with UV; vs no-protein controls", "method": "FIG. 12I depicts BFPX crosslinking of p53/DNA complexes. The binding reactions between the human tumor suppressor p53 DBD and a 37 mer Cy5 labeled DNA containing a consensus p53 tetramer binding site (5′-/5Cy5/-[…]-3′, (SEQ ID NO: 8)) were set up and treated with BFPX probes and UV illumination as described in FIG. 12C. The various treatment combinations were list above the gel. The reactions were then analyzed by SDS PAGE under denaturing condition as described in FIG. 12D. […] Because p53 bind this this DNA substrate as a tetramer, crosslinked p53/DNA complexes may contain one or more p53 protein molecules. While the monomeric p53/DNA complex appears to be the dominant crosslinked protein-DNA complexes, higher-molecule weight species were visible in SDS gel, which may correspond to crosslinked higher-order p53/DNA complex."}, "Hela cells": {"system": "Hela cells", "test": "Cell and nuclear permeability by click labelling with Alexa Fluor 647 picolyl azide, fluorescence imaging", "assay_type": "cell-based", "settings": "for dependence of immobilized fluorescent signal on probe concentration: 10 μM vs 100 μM under UV illumination, FIG. 14B; for immobilization of Alexa Fluor 647 picolyl azide in cells (cell and nuclear permeability): probe 10 μM or 100 μM, 30 min, UV 365 nm 5 min", "from_the_text": "FIG. 11A-FIG. 11F depicts permeability and subcellular distribution of the BFPX probe SPB-AAD in Hela cell. Top panel (FIG. 11A-FIG. 11C): buffer control experiments without adding SPB-AAD, (FIG. 11A) bright field; (FIG. 11B) fluorescence imaging of Alexa Fluor; (FIG. 11C) DAPI stain of the nuclei; Bottom panel: treatment with […], (FIG. 11D) bright field; (FIG. 11E) fluorescence imaging of Alexa Fluor; (FIG. 11F) DAPI stain of the nuclei.\nFIG. 14A depicts characterization and testing of BFPX crosslinking inside cells. Hela cells were incubated with SPB-AAD or SPB-PEG4-AAD (10 μM or 100 μM) in the dark for 30 min to allow the DNA binding and intercalation by the psoralen moiety of the BFPX probes. After washing off the excessive BFPX probe, illuminate UV 365 nm for 5 min. An Alexa Fluor 647 picolyl azide molecule (from Click-iT™ Plus Alexa Fluor™ 647 Picolyl Azide Toolkit) was used to react with the alkyne group on SPB-AAD or SPB-PEG4-AAD via click reaction. After the click chemistry labeling, the unreacted fluorescent molecules were removed by washing. The nuclei were analyzed using fluorescence imaging. When no BFPX probes were added (columns 1 and 2) or adding probes without UV treatment (columns 3 and 6), little or no fluorescence signal was retained in the cells.\nWe next tested the cell and nuclear permeability of the BFPX probes using azide-containing fluorescent molecules through click reaction with the terminal alkyne in SPB-AAD and SPB-PEG4-AAD. Briefly, Hela cells were incubated with SPB-AAD or SPB-PEG4-AAD (10 μM or 100 μM) in the dark for 30 min to allow the DNA binding and intercalation by the psoralen moiety of the BFPX probes. After washing off the excess BFPX probes followed by illumination of UV 365 nm for 5 min, Alexa Fluor 647 picolyl azide was coupled to the alkyne group on SPB-AAD or SPB-PEG4-AAD via click reaction. After the click chemistry labeling, the unreacted fluorescent molecules were removed by washing. The nuclei were then be analyzed using fluorescence imaging (FIG. 14A). When no BFPX probes were added (columns 1 and 2) or adding probes without UV treatment (columns 3 and 6), little or no fluorescence signal was retained in the cells.\nWe also analyzed (i) cell permeability and subcellular distribution of the BFPX probes. We validated the cell and nuclear permeability of the BFPX probes and monitored their sub-cellular distribution using azide-containing fluorescent label through click reaction with the alkyne group (as in SPB-AAD and SPB-PEG3-AAD). Briefly, Hela cells were incubated with SPB-AAD (25 μM) in the dark for 30 min to allow the DNA binding and intercalation by the psoralen moiety of the BFPX probe. […] The nuclei were then analyzed using fluorescence imaging (FIG. 11). […]"}}, "data": [{"smiles": "C#CCCC1(CCNC(=O)CCOCCOCCOCCOCCNC(=O)CCCOc2c3occc3cc3ccc(=O)oc23)N=N1", "note": "[SPB-PEG4-AAD, N-(2-(3-(but-3-yn-1-yl)-3H-diazirin-3-yl)ethyl)-1-(4-((7-oxo-7H-furo[3,2-g]chromen-9-yl)oxy)butanamido)-3,6,9,12-tetraoxapentadecan-15-amide]", "values": [{"measurement": "crosslinking of the Nkx2.5/DNA complex", "setting": "Nkx2.5/DNA complex", "result": "significant crosslinking of the Nkx2.5/DNA complex"}, {"measurement": "crosslinking of the p53/DNA complex", "setting": "p53/DNA complex", "result": "significant crosslinking of the p53/DNA complex"}, {"measurement": "dependence of immobilized fluorescent signal on probe concentration", "setting": "Hela cells", "result": "dosage dependent"}, {"measurement": "immobilization of Alexa Fluor 647 picolyl azide in cells (cell and nuclear permeability)", "setting": "Hela cells", "result": "could be immobilized in the cells via click reaction"}]}, {"smiles": "C#CCCC1(CCNC(=O)CCCOc2c3occc3cc3ccc(=O)oc23)N=N1", "note": "[SPB-AAD, N-(2-(3-(but-3-yn-1-yl)-3H-diazirin-3-yl)ethyl)-4-((7-oxo-7H-furo[3,2-g]chromen-9-yl)oxy)butanamide]", "values": [{"measurement": "crosslinking of the Nkx2.5/DNA complex", "setting": "Nkx2.5/DNA complex", "result": "significant crosslinking of the Nkx2.5/DNA complex"}, {"measurement": "crosslinking of the p53/DNA complex", "setting": "p53/DNA complex", "result": "significant crosslinking of the p53/DNA complex"}, {"measurement": "dependence of immobilized fluorescent signal on probe concentration", "setting": "Hela cells", "result": "dosage dependent"}, {"measurement": "immobilization of Alexa Fluor 647 picolyl azide in cells (cell and nuclear permeability)", "setting": "Hela cells", "result": "could be immobilized in the cells via click reaction"}]}]}
